Assay results reported in patent US20210371459A1, “DIMERIC PEPTIDE INHIBITORS OF APOPTOSIS PROTEINS” (Hepagene Therapeutics (HK) Limited, priority 2017, published 2021).

Tests used:
Settings in all cases: FP, probe AbuRPFK-5FAM, 60 min at 25° C.
cIAP2-BIR3 = molecular target: T1, cIAP2-BIR3 (Homo sapiens, UniProt Q13489); assay: cIAP2-BIR3 fluorescence polarization binding assay
T1 construct: cIAP2-BIR3; Reaction Biology; APT-11-372; purchased Reaction Biology APT-11-372
Excerpt: (§1) IAPs are one main cause of cancer development and may result from overexpression of anti-apoptotic proteins. This protocol establishes three binding assays for XIAP Bir3 domain, cIAP1 and cIAP2 using FP (Fluorescence polarization) technology. The fluorescence probe used is a synthetic peptide conjugated to 5-carboxyfluorescein (AbuRPFK-5FAM). The fluorescence polarization value (mP) was detected by Envision, which was used to reflect the binding degree of protein and fluorescent marker. Reagents and equipment used in the assay are listed below, followed by the protocol.
(§2) • a) Prepare 100 times of the final cpd concentration in appropriate tube and transfer 5 uL compound (“cpd”) to 45 μL 1× reaction buffer with 10% DMSO. • b) The final reference cpd concentration is 10000, 3333.3, 1111.1, 370.4, 123.4, 41.2, 13.7, 4.57, 1.52, 0.51, 0.17 and 0 nM. So the 100 times of the concentration is 1000, 333.3, 111.1, 37.04, 12.34, 4.12, […], 0.15, 0.05, 0.017 and 0 μM. The final test cpds concentration is 3333.3, 1111.1, 370.4, 123.4, 41.2, 13.7, 4.57, 1.52, 0.51, 0.17, 0.057 and 0 nM. So the 100 times of the concentration is 333.3, 111.1, 37.04, 12.34, 4.12, […], 0.15, 0.05, 0.017, 0.0057 and 0 μM • c) Add 8 μL/well each dose enzyme to 384 well microplate (ProxiPlate-384 F Plus, 6008260) using multichannel pipette, prepared in step 2.1.1.2 • d) Centrifuge at 1000 rpm. • e) Add 2 μL/well cpd to 384 well microplate (ProxiPlate-384 F Plus, 6008260) using multichannel pipette, prepared in step a). • f) Centrifuge at 1000 rpm. RT, 15 min. • g) Start the assay by adding 10 uL/well substrate (prepared in step 2.1.1.3) to the same 384 well microplate using multichannel pipette • h) Centrifuge at 1000 rpm. • i) Cover the assay plate and incubate for 60 min at 25° C. • j) Read on Envision 2104 for mP and plot the IC50s with mP values. • k) Data analysis: IC50s were determined based on a non-linear regression analysis of data collected.

cIAP1-BIR3 = molecular target: T2, cIAP1-BIR3 (Homo sapiens, UniProt Q13490); assay: cIAP1-BIR3 fluorescence polarization binding assay
T2 construct: cIAP1-BIR3; Reaction Biology; APT-11-370; purchased Reaction Biology APT-11-370
T2 sequence (Q13490 253-363 limits assumed): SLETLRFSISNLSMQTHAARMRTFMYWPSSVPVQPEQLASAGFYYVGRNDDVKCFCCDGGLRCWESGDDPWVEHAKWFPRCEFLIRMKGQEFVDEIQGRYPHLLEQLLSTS
Excerpt: as §1, §2

XIAP-BIR3 = molecular target: T3, XIAP-BIR3 (Homo sapiens, UniProt P98170); assay: XIAP-BIR3 fluorescence polarization binding assay
T3 construct: purchased Reaction Biology APT-11-374
T3 sequence (P98170 241-356 limits assumed): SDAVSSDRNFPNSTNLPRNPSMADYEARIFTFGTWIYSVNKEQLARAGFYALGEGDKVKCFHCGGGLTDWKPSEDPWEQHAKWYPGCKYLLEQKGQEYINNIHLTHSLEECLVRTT
Excerpt: as §1, §2

T1 sequence (Q13489 238-349 limits assumed): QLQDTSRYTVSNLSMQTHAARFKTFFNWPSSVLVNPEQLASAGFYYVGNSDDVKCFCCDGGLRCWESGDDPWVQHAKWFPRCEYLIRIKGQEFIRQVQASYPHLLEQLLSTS

IC50 (cIAP2-BIR3) [nM]	IC50 (cIAP1-BIR3) [nM]	IC50 (XIAP-BIR3) [nM]	SMILES
10 to 100	0.1 to 10	10 to 100	CN[C@@H](C)C(=O)N[C@H](C(=O)N1CCC[C@H]1C(=O)N[C@@H]1CCCc2c1cccc2N1CCN(c2cccc3c2CCC[C@H]3NC(=O)[C@@H]2CCCN2C(=O)[C@@H](NC(=O)[C@H](C)NC)C2CCCCC2)CC1)C1CCCCC1 [Compound I, (2S)-1-[(2S)-2-Cyclohexyl-2-[(2S)-2-(methylamino)propanamido]acetyl]-N-[(1R)-5-[4-[(5R)-5-[(2S)-1-[(2S)-2-cyclohexyl-2-[(2S)-2-(methylamino)propanamido]acetyl]pyrrolidine-2-amido]-5,6,7,8-tetrahydronaphthalen-1-yl]piperazin-1-yl]-1,2,3,4-tetrahydronaphthalen-1-yl]pyrrolidine-2-carboxamide]
10 to 100	0.1 to 10	100 to 1000	CN[C@@H](C)C(=O)N[C@H](C(=O)N1CCC[C@H]1C(=O)N[C@@H]1CCCc2c1cccc2N1CCN(c2cccc3c2CCC[C@H]3NC(=O)[C@@H]2CCCN2C(=O)[C@@H](NC(=O)[C@H](C)NC)C(C)(C)C)CC1)C(C)(C)C [Compound I-A, (2S,2′S,29S,34S)—N, N′-((1R,1′R)-5,5′-(Piperazine-1,4-diyl)bis(1,2,3,4-tetrahydronaphthalene-5,1-diyl))bis(1-((S)-3,3-dimethyl-2-((S)-2-(methylamino)propanamido)butanoyl)pyrrolidine-2-carboxamide)]
10 to 100	0.1 to 10	100 to 1000	CC[C@H](NC(=O)[C@H](C)NC)C(=O)N1CCC[C@H]1C(=O)N[C@@H]1CCCc2c1cccc2N1CCN(c2cccc3c2CCC[C@H]3NC(=O)[C@@H]2CCCN2C(=O)[C@H](CC)NC(=O)[C@H](C)NC)CC1 [Compound I-B, (2S)-1-[(2S)-2-[(2S)-2-(Methylamino)propanamido]butanoyl]-N-[(1R)-5-[4-[(5R)-5-[(2S)-1-[(2S)-2-[(2S)-2-(methylamino)propanamido]butanoyl]pyrrolidine-2-amido]-5,6,7,8-tetrahydronaphthalen-1-yl]piperazin-1-yl]-1,2,3,4-tetrahydronaphthalen-1-yl]pyrrolidine-2-carboxamide]
10 to 100	0.1 to 10	10 to 100	CN[C@@H](C)C(=O)N[C@H](C(=O)N1CCC[C@H]1C(=O)N[C@@H]1CCCc2c1cccc2N1CCN(c2cccc3c2CCC[C@H]3NC(=O)[C@@H]2CCCN2C(=O)[C@@H](NC(=O)[C@H](C)NC)C(C)C)CC1)C(C)C [Compound I-C, (S)-1-((S)-3-Methyl-2-((S)-2-(methylamino)propanamido)butanoyl)-N—((R)-5-(4-((R)-5-((S)-1-((S)-3-methyl-2-((S)-2-(methylamino)propanamido)butanoyl)pyrrolidine-2-carboxamido)-5,6,7,8-tetrahydronaphthalen-1-yl)piperazin-1-yl)-1,2,3,4-tetrahydronaphthalen-1-yl)pyrrolidine-2-carboxamide]
10 to 100	0.1 to 10	10 to 100	CN[C@@H](C)C(=O)N[C@H](C(=O)N1C[C@@H](OCCCN2CCN(CCCO[C@H]3C[C@@H](C(=O)N[C@@H]4CCCc5ccccc54)N(C(=O)[C@@H](NC(=O)[C@H](C)NC)C4CCCCC4)C3)CC2)C[C@H]1C(=O)N[C@@H]1CCCc2ccccc21)C1CCCCC1 [Compound II, (2S,4S)-1-[(2S)-2-Cyclohexyl-2-[(2S)-2-(methylamino)propanamido]acetyl]-4-[3-[4-(3-[[(3S,5S)-1-[(2S)-2-cyclohexyl-2-[(2S)-2-(methylamino)propanamido]acetyl]-5-[[(1R)-1,2,3,4-tetrahydronaphthalen-1-yl]carbamoyl]pyrrolidin-3-yl]oxy]propyl)piperazin-1-yl]propoxy]-N-[(1R)-1,2,3,4-tetrahydronaphthalen-1-yl]pyrrolidine-2-carboxamide]
10 to 100	0.1 to 10	100 to 1000	CN[C@@H](C)C(=O)N[C@@H](C)C(=O)N1C[C@@H](OCCCN2CCN(CCCO[C@H]3C[C@@H](C(=O)N[C@@H]4CCCc5ccccc54)N(C(=O)[C@H](C)NC(=O)[C@H](C)NC)C3)CC2)C[C@H]1C(=O)N[C@@H]1CCCc2ccccc21 [Compound II-A, (2S,4S)-1-[(2S)-2-[(2S)-2-(Methylamino)propanamido]propanoyl]-4-{3-[4-(3-{[(3S,5S)-1-[(2S)-2-[(2S)-2-(methylamino)propanamido]propanoyl]-5-{[(1R)-1,2,3,4-tetrahydronaphthalen-1-yl]carbamoyl}pyrrolidin-3-yl]oxy}propyl)piperazin-1-yl]propoxy}-N-[(1R)-1,2,3,4-tetrahydronaphthalen-1-yl]pyrrolidine-2-carboxamide]
0.1 to 10	0.1 to 10	10 to 100	CC[C@H](NC(=O)[C@H](C)NC)C(=O)N1C[C@@H](OCCCN2CCN(CCCO[C@H]3C[C@@H](C(=O)N[C@@H]4CCCc5ccccc54)N(C(=O)[C@H](CC)NC(=O)[C@H](C)NC)C3)CC2)C[C@H]1C(=O)N[C@@H]1CCCc2ccccc21 [Compound II-B, (2S,4S)-1-[(2S)-2-[(2S)-2-(Methylamino)propanamido]butanoyl]-4-{3-[4-(3-{[(3S,5S)-1-[(2S)-2-[(2S)-2-(methylamino)propanamido]butanoyl]-5-{[(1R)-1,2,3,4-tetrahydronaphthalen-1-yl]carbamoyl}pyrrolidin-3-yl]oxy}propyl)piperazin-1-yl]propoxy}-N-[(1R)-1,2,3,4-tetrahydronaphthalen-1-yl]pyrrolidine-2-carboxamide]
0.1 to 10	0.1 to 10	0.1 to 10	CN[C@@H](C)C(=O)N[C@H](C(=O)N1C[C@@H](OCCCN2CCN(CCCO[C@H]3C[C@@H](C(=O)N[C@@H]4CCCc5ccccc54)N(C(=O)[C@@H](NC(=O)[C@H](C)NC)C(C)C)C3)CC2)C[C@H]1C(=O)N[C@@H]1CCCc2ccccc21)C(C)C [Compound II-C, (2S,4S)-1-[(2S)-3-Methyl-2-[(2S)-2-(methylamino)propanamido]butanoyl]-4-{3-[4-(3-{[(3S,5S)-1-[(2S)-3-methyl-2-[(2S)-2-(methylamino)propanamido]butanoyl]-5-{[(1R)-1,2,3,4-tetrahydronaphthalen-1-yl]carbamoyl}pyrrolidin-3-yl]oxy}propyl)piperazin-1-yl]propoxy}-N-[(1R)-1,2,3,4-tetrahydronaphthalen-1-yl]pyrrolidine-2-carboxamide]
10 to 100	0.1 to 10	10 to 100	CN[C@@H](C)C(=O)N[C@H](C(=O)N1C[C@@H](OCCCN2CCN(CCCO[C@H]3C[C@@H](C(=O)N[C@@H]4CCCc5ccccc54)N(C(=O)[C@@H](NC(=O)[C@H](C)NC)C(C)(C)C)C3)CC2)C[C@H]1C(=O)N[C@@H]1CCCc2ccccc21)C(C)(C)C [Compound II-D, (2S,4S)-1-[(2S)-3,3-Dimethyl-2-[(2S)-2-(methylamino)propanamido]butanoyl]-4-[3-[4-(3-[[(3S,5S)-1-[(2S)-3,3-dimethyl-2-[(2S)-2-(methylamino)propanamido]butanoyl]-5-[[(1R)-1,2,3,4-tetrahydronaphthalen-1-yl]carbamoyl]pyrrolidin-3-yl]oxy]propyl)piperazin-1-yl]propoxy]-N-[(1R)-1,2,3,4-tetrahydronaphthalen-1-yl]pyrrolidine-2-carboxamide]
10 to 100	0.1 to 10	100 to 1000	CN[C@@H](C)C(=O)N[C@H](C(=O)N1C[C@@H](OCCCN2CCN(CCCO[C@H]3C[C@@H](C(=O)N[C@@H]4CCCc5ccccc54)N(C(=O)[C@@H](NC(=O)[C@H](C)NC)C4CC4)C3)CC2)C[C@H]1C(=O)N[C@@H]1CCCc2ccccc21)C1CC1 [Compound II-F, (2S,4S)-1-[(2S)-2-Cyclopropyl-2-[(2S)-2-(methylamino)propanamido]acetyl]-4-[3-[4-(3-[[(3S,5S)-1-[(2S)-2-cyclopropyl-2-[(2S)-2-(methylamino)propanamido]acetyl]-5-[[(1R)-1,2,3,4-tetrahydronaphthalen-1-yl]carbamoyl]pyrrolidin-3-yl]oxy]propyl)piperazin-1-yl]propoxy]-N-[(1R)-1,2,3,4-tetrahydronaphthalen-1-yl]pyrrolidine-2-carboxamide]
